Measurements published in patent US6004972A, “Therapeutic process for the treatment of the pathologies of type II diabetes” (The Board of Supervisiors of Louisiana State University and …, priority 1998, dated 1999).
“And” between values parts separate entries of the source, which are not always exact repeats. Identical values can stand only once.

How the values were obtained:
[1] = system: circadian rhythms of plasma cortisol and prolactin in adult female pigs; assay: Circadian plasma cortisol and prolactin levels in pigs given bromocriptine implants; format: in vivo, pig (swine); conditions: for Plasma Cortisol Level: implant 10 mg/pig/day
Description: Adult female pigs, six in number, were given bromocryptine implants (10 mg/pig/day) lasting over a period of time while the pigs were subjected to daily periods of daylight and darkness (12:12). […] A control group of six pigs were similarly treated to periods of daylight and darkness except that no bromocryptine was administered to the pigs of the control group. The period of darkness was from 1800 to 0600, and the period of daylight from 0600 to 1800. Daily tests were made of the blood of the pigs at four hour intervals over a 14 day period to determine the plasma cortisol level (μg/dl) and plasma prolactin level […] of both groups. The average for each series of tests made on each group are given as follows: […]

adult female pigs = assay: Effects of bromocriptine implants on fat stores and plasma triglyceride, glucose and insulin in pigs; format: in vivo, pig (swine)
Description: Adult female pigs, six in number, were given bromocryptine implants (10 mg/pig/day) lasting over a period of time while the pigs were subjected to daily periods of daylight and darkness (12:12). […] A control group of six pigs were similarly treated to periods of daylight and darkness except that no bromocryptine was administered to the pigs of the control group. The period of darkness was from 1800 to 0600, and the period of daylight from 0600 to 1800. Daily tests were made of the blood of the pigs at four hour intervals over a 14 day period to determine the plasma cortisol level (μg/dl) and plasma prolactin level […] of both groups. The average for each series of tests made on each group are given as follows:
Notes: Backfat thickness was used as an index in determining fat stores.
Plasma was sampled at 1600, 2000 and 2400 after two weeks of treatment. Each pig of the treatment group and control group was sampled.

symptoms of diabetes = assay: Oral bromocriptine in a diabetic (Example 2); format: in vivo, human; conditions: 1.25-2.50 mg/day orally just after awakening
Description: At the beginning of the treatment, blood glucose concentration was shown by routine testing to be near 250 mg/dl. […] Fasting levels below 120 mg/dl are considered normal.

Type II diabetes [2] = assay: Oral bromocriptine in a person treated with diabenase (Example 3); format: in vivo, human
Description: A person was being treated with a hypoglycemic agent (diabenase) which had reduced the blood glucose of the patient from 250 mg/dl to about 180 mg/dl during one year of treatment. […] Removal of the hypoglycemic agent allowed glucose levels to rise and remain near 100 mg/dl (a normal level) in the succeeding two months.

Type II diabetes [3] = assay: Oral bromocriptine in a diabetic (Example 4); format: in vivo, human; conditions: parlodel 2.5 mg/day orally, 2.5 months
Description: A person weighing nearly 300 pounds was known to be a diabetic but had resisted all previous admonitions for treatment. […] Body weight has dropped 22 pounds and plasma glucose levels decreased to 160 mg/dl.

[4] = system: noninsulin dependent (Type II) diabetes; assay: Timed oral bromocriptine in fifteen persons with noninsulin dependent (Type II) diabetes (Example 5); format: in vivo, human; conditions: for Body Fat Loss / Plasma Glucose (% initial) / Skinfold Measurements (% initial): p < 0.05
Description: The participants were carefully instructed not to alter their daily activity or eating habits during the course of treatment.
Skinfold thickness was measured on the left side of the body by a trained anthropometrist in four regions: biceps, triceps, subscapular, and suprailiac, following the recommendations of the International Biological Program. Because of its frequent use, percent body fat was estimated from the common logarithm of the sum of the four skinfolds, using the equations of Durnin and Rahman and of Siri. […] Skinfold measurements were taken initially and at weekly intervals by the same individual. Blood pressure was also determined at these times. Morning fasting plasma glucose in the diabetic group was determined initially and after 4-8 weeks.

body fat stores = conditions: injections at different times of day; cited from earlier work
[5] = parlodel 1.25-2.5 mg/day orally
[6] = subjects on hypoglycemic drugs (8), 4-8 weeks
[7] = subjects receiving insulin (7), 4-8 weeks

CC(C)C[C@H]1C(=O)N2CCC[C@H]2[C@]2(O)O[C@](NC(=O)[C@@H]3C=C4c5cccc6[nH]c(Br)c(c56)C[C@H]4N(C)C3)(C(C)C)C(=O)N12 [bromocriptine, 2-bromo-alpha-ergocryptine]
phase relationships of the circadian rhythms of plasma corticosteroid and prolactin concentrations ([1]; implant): altered the phase relationships | Plasma Cortisol Level ([1]; LD 12:12, time 0400, control 5.5): 3.2 µg/dL | Plasma Cortisol Level ([1]; LD 12:12, time 0800, control 4.8): 1.9 µg/dL | Plasma Cortisol Level ([1]; LD 12:12, time 1200, control 3.4): 1.5 µg/dL | Plasma Cortisol Level ([1]; LD 12:12, time 1600, control 1.6): 3.2 µg/dL | Plasma Cortisol Level ([1]; LD 12:12, time 2000, control 1.9): 2.8 µg/dL | Plasma Cortisol Level ([1]; LD 12:12, time 2400, control 2.7): 3.5 µg/dL | Backfat (adult female pigs; 10 mg/day/pig implant, 28 days after treatment): 86 % control | Triglyceride (plasma) (adult female pigs; 10 mg/day/pig implant, two weeks, sampled 1600, 2000 and 2400, control 52 ± 8): 27 ± 3 mg/dL | Glucose (plasma) (adult female pigs; 10 mg/day/pig implant, two weeks, sampled 1600, 2000 and 2400, control 99 ± 5): 86 ± 3 mg/dL | reduction in plasma insulin concentration (adult female pigs; implant): not statistically significant | reduction of body fat stores (adult female pigs; implant, 28 day period of treatment): 14% | reduction of plasma glucose levels (adult female pigs; implant, early period of darkness (2000-2400)): 13% | reduction of plasma triglyceride concentration (adult female pigs; implant, near sunset): 48% | reduction of body weight (symptoms of diabetes): about 12% | reduction of indices of body fat (symptoms of diabetes): about 12% | blood glucose concentration (symptoms of diabetes; successive levels in following weeks, initial near 250 mg/dl): 180 mg/dL and 155 mg/dL and 135 mg/dL and 97 mg/dL and 101 mg/dL | blood glucose level (Type II diabetes [2]; after removal of hypoglycemic agent, succeeding two months): ~100 mg/dL | reduction of body fat (Type II diabetes [2]; [5]): about 10% | reduction of body weight (Type II diabetes [2]; [5]): about 10% | blood glucose level (Type II diabetes [2]; parlodel 1.25-2.5 mg/day orally, about an hour after awakening, with diabenase, 2 weeks, from about 180 mg/dl): 80 mg/dL | plasma glucose level (Type II diabetes [3]; initial near 350 mg/dl): 160 mg/dL | drop in body weight (Type II diabetes [3]; two to three hours after awakening, initial nearly 300 pounds): 22 pounds | transient anorexic effects ([4]; 1.25 mg for 2-3 days then 2.5 mg daily, oral): did not occur | mild nausea, participants ([4]; 1.25 mg for 2-3 days then 2.5 mg daily, oral, transient, first few days): < 10% | reductions in body fat ([4]; after 6 weeks without food restriction): 4.4 % of the body weight | blood glucose concentrations and skinfold measurements ([4]; all subjects, 4-8 weeks): reduced in every diabetic subject | doses of hypoglycemic drugs and insulin ([4]; during bromocriptine treatment): reduced in three other subjects | oral hypoglycemic medication discontinued ([4]; during bromocriptine treatment): completely discontinued during bromocriptine treatment in three individuals | fat loss, average ([4]; present study): 1.4 pounds per week | Body Fat, final ([4]; subjects on hypoglycemic drugs (8), 4-8 weeks, initial 36.5 ± 2.3, p < 0.05): 32.9 ± 2.0 % Body Weight | Plasma Glucose, final (fasting) ([4]; subjects on hypoglycemic drugs (8), 4-8 weeks, initial 231 ± 19, p < 0.05): 166 ± 19 mg/dL | Total Body Weight, final ([4]; subjects on hypoglycemic drugs (8), 4-8 weeks, initial 255 ± 21): 253 ± 20 pounds | Loss of Body Weight ([4]; subjects on hypoglycemic drugs (8), 4-8 weeks, not statistically significant): -2.4 ± 2.0 pounds | Body Fat Loss [4, 6]: -10.0 ± 2.2 pounds | Plasma Glucose (% initial) [4, 6]: 72 ± 6 % initial | Skinfold Measurements (% initial) [4, 6]: 79 % initial | Loss of Body Weight [4, 7]: -0.4 ± 2.0 pounds | Body Fat, final ([4]; subjects receiving insulin (7), 4-8 weeks, initial 33.4 ± 2.2, p < 0.05): 31.7 ± 1.7 % Body Weight | Body Fat Loss [4, 7]: -3.1 ± 0.9 pounds | Plasma Glucose (% initial) [4, 7]: 65 ± 8 % initial | Skinfold Measurements (% initial) [4, 7]: 84 % initial | mean loss of body fat ([4]; subjects taking hypoglycemic drugs, 4-8 weeks): 10 pounds | mean reduction in skinfold measurements ([4]; subjects taking hypoglycemic drugs, four regions, 4-8 weeks): 21% | reduction of body weight ([4]; subjects taking hypoglycemic drugs, not statistically significant): 2.4 pounds per subject | decline in total body fat ([4]; subjects taking hypoglycemic drugs, within 4 to 8 weeks): 10.7% | reduction in % body fat ([4]; subjects taking insulin): 5.1 | reduction in body fat ([4]; subjects taking insulin): 3.1 pounds | reduction in skinfold ([4]; subjects taking insulin): 16% | reduction of body weight ([4]; subjects taking insulin): not at all reduced | blood glucose levels after termination of bromocriptine ([4]; three individuals off oral hypoglycemic medication, at least two months after bromocriptine terminated): < 120 mg/dL

CCCNC(=O)NS(=O)(=O)c1ccc(Cl)cc1 [diabenase]
blood glucose level (Type II diabetes [2]; diabenase alone, one year of treatment, from 250 mg/dl): about 180 mg/dl

B1: Prolactin: a hormone secreted by the pituitary (protein, UniProt P01236 29-227, looked up)
Prolactin: LPICPGGAARCQVTLRDLFDRAVVLSHYIHNLSSEMFSEFDKRYTHGRGFITKAINSCHTSSLATPEDKEQAQQMNQKDFLSLIVSILRSWNEPLYHLVTEVRGMQEAPEAILSKAVEIEEQTKRLLEGMELIVSQVHPETKENEIYPVWSGLPSLQMADEESRLSAYYNLLHCLRRDSHKIDNYLKLLKCRIIHNNNC
stimulation of fattening (body fat stores): stimulate fattening only when injected at certain times of the day
